What follows are compounds tested against T1, PD-1/PD-L1 (Homo sapiens, UniProt Q9NZQ7) (assay: PD-1/PD-L1 Homogeneous Time-Resolved Fluorescence (HTRF) binding assay). Conditions: recombinant human PD-L1 (19-238)-His 10 nM, human PD-1 (25-167)-Fc 3 nM, 25° C., PBS pH 7.4.
T1 construct: Recombinant human PD-L1 protein (19-238) with a His-tag at the C-terminus; purchased AcroBiosystems PD1-H5229 (PD-L1); PD1-H5257 (PD-1)
T1 sequence (Q9NZQ7 19-238): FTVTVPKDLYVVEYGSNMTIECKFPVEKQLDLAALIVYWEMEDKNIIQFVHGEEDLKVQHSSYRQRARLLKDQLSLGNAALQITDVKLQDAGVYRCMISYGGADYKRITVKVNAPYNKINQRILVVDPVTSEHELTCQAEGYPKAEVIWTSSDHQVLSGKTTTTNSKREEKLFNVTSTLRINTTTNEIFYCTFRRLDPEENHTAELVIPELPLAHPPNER
Description: Example A. PD-1/PD-L1 Homogeneous Time-Resolved Fluorescence (HTRF) Binding Assay
The assays were conducted in a standard black 384-well polystyrene plate with a final volume of 20 μL. Inhibitors were first serially diluted in DMSO and then added to the plate wells before the addition of other reaction components. The final concentration of DMSO in the assay was 1%. The assays were carried out at 25° C. in the PBS buffer (pH 7.4) with 0.05% Tween-20 and 0.1% BSA. Recombinant human PD-L1 protein (19-238) with a His-tag at the C-terminus was purchased from AcroBiosystems (PD1-H5229). Recombinant human PD-1 protein (25-167) with Fc tag at the C-terminus was also purchased from AcroBiosystems (PD1-H5257). PD-L1 and PD-1 proteins were diluted in the assay buffer and 10 μL was added to the plate well. Plates were centrifuged and proteins were preincubated with inhibitors for 40 minutes. The incubation was followed by the addition of 10 μL of HTRF detection buffer supplemented with Europium cryptate-labeled anti-human IgG (PerkinElmer-AD0212) specific for Fc and anti-His antibody conjugated to SureLight®-Allophycocyanin (APC, PerkinElmer-AD0059H). After centrifugation, the plate was incubated at 25° C. for 60 min. before reading on a PHERAstar FS plate reader (665 nm/620 nm ratio). Final concentrations in the assay were—3 nM PD1, 10 nM PD-L1, 1 nM europium anti-human IgG and 20 nM anti-His-Allophycocyanin. IC50 determination was performed by fitting the curve of percent control activity versus the log of the inhibitor concentration using the GraphPad Prism 5.0 software.
Cc1c(Oc2ncnc3c(CNCCO)csc23)cccc1-c1ccccc1 [Example 1, 2-((4-(2-methylbiphenyl-3-yloxy)thieno[3,2-d]pyrimidin-7-yl)methylamino)ethanol] was tested, and the IC50 was 10 to 100 nM. With Cc1c(-c2ccccc2)cccc1-c1cnn(C[C@@H]2CCCN2)c1 [Example 2, 4-(2-methylbiphenyl-3-yl)-1-[(2S)-pyrrolidin-2-ylmethyl]-1H-pyrazole] the IC50 was 10 to 100 nM. Compound COc1cccc(-c2cccc(Nc3nccc(CNCCO)c3F)c2Cl)c1F [Example 3, 2-((2-(2-chloro-2′-fluoro-3′-methoxybiphenyl-3-ylamino)-3-fluoropyridin-4-yl)methylamino)ethanol] has an IC50 of no more than 10 nM. With Cc1c(-c2ccccc2)cccc1-c1ccc2nc(CN3CCCC[C@H]3C(=O)O)cc(C)c2c1 [Example 4, (S)-1-((4-methyl-6-(2-methylbiphenyl-3-yl)quinolin-2-yl)methyl)piperidine-2-carboxylic acid] the IC50 was 10 to 100 nM. Compound Cc1c(-c2ccccc2)cccc1-c1ccc2c(c1)CNC2 [Example 5, 5-(2-methylbiphenyl-3-yl)isoindoline] has an IC50 of 10 to 100 nM. NCc1ccc(-c2cccc(-c3ccccc3)c2Cl)cn1 [Example 6, (5-(2-chlorobiphenyl-3-yl)pyridin-2-yl)methanamine] was tested, and the IC50 was 10 to 100 nM. Cc1c(-c2ccccc2)cccc1-c1ccc(CNCCO)cc1 [Example 7, 2-{[(2′-methyl-1,1′:3′,1″-terphenyl-4-yl)methyl]amino}ethanol] gave an IC50 of 10 to 100 nM. Compound Cc1c(/C=C/c2ccc(CN3CCCC[C@@H]3C(=O)O)cn2)cccc1-c1ccccc1 [Example 8, (R,E)-1-((6-(2-(2-methyl-[1,1′-biphenyl]-3-yl)vinyl)pyridin-3-yl)methyl)piperidine-2-carboxylic acid] has an IC50 of 10 to 100 nM. For COc1cccc(-c2cccc(Nc3nccn4c(CNCCO)cnc34)c2C)c1F [Example 9, 2-(((8-((2′-fluoro-3′-methoxy-2-methyl-[1,1′-biphenyl]-3-yl)amino)imidazo[1,2-a]pyrazin-3-yl)methyl)amino)ethan-1-ol], the IC50 was 10 to 100 nM. Compound Cc1cc(CN2CCCC[C@H]2C(=O)O)ccc1OC1CCc2c(-c3ccccc3)cccc21 (stereo partly drawn) [Example 10, (2S)-1-(3-methyl-4-(4-phenyl-2,3-dihydro-1H-inden-1-yloxy)benzyl)piperidine-2-carboxylic acid] has an IC50 of 100 to 1000 nM. For Cc1c(NC(=O)c2cccn3c(CN4CCCC[C@H]4C(=O)O)cnc23)cccc1-c1ccccc1 [Example 11, (S)-1-((8-(2-methylbiphenyl-3-ylcarbamoyl)imidazo[1,2-a]pyridin-3-yl)methyl)piperidine-2-carboxylic acid], the IC50 was 100 to 1000 nM. With O=C(Nc1ccc2cnc(-c3ccccc3)cc2c1Cl)c1ccc(CNCCO)cn1 [Example 12, N-(5-chloro-3-phenylisoquinolin-6-yl)-5-((2-hydroxyethylamino)methyl) picolinamide] the IC50 was 100 to 1000 nM. Cc1c(-c2ccccc2)cccc1-c1ccc2c(c1)CCNC2 [Example 13, 6-(2-methylbiphenyl-3-yl)-1,2,3,4-tetrahydroisoquinoline] gave an IC50 of 10 to 100 nM. In the case of Cc1c(-c2ccccc2)cccc1N1CCc2cc(CNCCO)ccc2C1 [Example 14, 2-((2-(2-methylbiphenyl-3-yl)-1,2,3,4-tetrahydroisoquinolin-6-yl)methylamino)ethanol], the IC50 is reported as 100 to 1000 nM. With Cc1c(Nc2ccc3c(c2)CCNC3)cccc1-c1ccccc1 [Example 15, N-(2-methylbiphenyl-3-yl)-1,2,3,4-tetrahydroisoquinolin-6-amine] the IC50 was 100 to 1000 nM. In the case of Cc1c(-c2ccccc2)cccc1-c1ccc2c(c1)CCC(CN(C)C)O2 (stereo not drawn) [Example 16, N,N-dimethyl-1-(6-(2-methylbiphenyl-3-yl)chroman-2-yl)methanamine], the IC50 is reported as 100 to 1000 nM. Cc1c(-c2ccccc2)cccc1-c1cnc2c(c1)CNC2 [Example 17, 3-(2-methylbiphenyl-3-yl)-6,7-dihydro-5H-pyrrolo[3,4-b]pyridine] showed an IC50 of 100 to 1000 nM. Cc1c(Nc2ccc3c(c2)CCN(C(CO)CO)C3)cccc1-c1ccccc1 [Example 18, 2-(6-(2-methylbiphenyl-3-ylamino)-3,4-dihydroisoquinolin-2(1H)-yl)propane-1,3-diol] gave an IC50 of 100 to 1000 nM.
